Converted amounts (≈) assume the structure as drawn. Where two headings read alike, the source gives them in different places.
Legend:
[1] = tested on: HIV-1 in chronic infected U1 cells (HIV monocytes); experiment: HIV chronic study, monocyte HIV replication; format: cell-based; conditions: Human immunodeficiency virus 1, Monocyte; 60 μg/ml; read-out: suppressed replication in the HIV monocytes
Protocol: (§1) These cells were treated with test samples.

[2] = tested on: HIV-1 in chronic infected ACH-2 cells (T-cell); experiment: HIV chronic study, T-cell HIV replication; format: cell-based; conditions: Human immunodeficiency virus 1, ACH-2; 60 μg/ml; increase; read-out: T-cell HIV replication was increased
Protocol: as §1

[3] = tested on: lung tumor cells (A-549); experiment: Related study, lung tumor cells, optical density (Table 3); format: cell-based, human; conditions: for Optical Density: 0-Control 0.600
Excerpt: (§2) Table 3 summarizes the results

[4] = tested on: breast tumor cells (MCF-7); experiment: Related study, breast tumor cells, optical density (Table 3); format: cell-based; conditions: for Optical Density: 0-Control 0.245
Excerpt: as §2

[5] = tested on: colon tumor cells (HT-29); experiment: Related study, colon tumor cells, optical density (Table 3); format: cell-based, human; conditions: for Optical Density: 0-Control 0.398
Excerpt: as §2

[6] = tested on: HIV; experiment: In vitro acute model for HIV, viral replication; format: cell-based; conditions: read-out: inhibited viral replication
Protocol: In an in vitro acute model for HIV carbendazim inhibited viral replication by 100% at 4 μg/ml and AZT inhibited viral replication by 98% at 1 μg/ml. Thiabendazole inhibited viral replication by 98% at 60 μg/ml.

[7] = tested on: A549 lung tumor cells; experiment: MTT cell viability, lung tumor cells (Table 1); format: cell-based; conditions: Homo sapiens, A549, 120 h, approx. 5 days, read-out: EC-50 Result
Protocol: (§3) The following cell culture tests were performed to test the toxicity of the benzimidazole compounds on colon, breast and lung human tumor cells. The viability of the cells were tested by looking at MTT (3-[4,5-dimethylthiazol-2-yl]-2,5-diphenyltetrazolium bromide) reduction. MTT assay is a well known measure of cell viability.
(§4) The colon tumor cells (HT29 from American Type Culture Collection (ATCC)) and the breast cells (MX1 from cell lines from ATCC) were cultured in Eagle's Miminal Essential Medium with 10% fetal bovine serum. The lung tumor cells (A549 from ATCC cell lines) were cultured in Ham's F12 medium with 10% fetal bovine serum.
(§5) The tumor cells were passaged and seeded into culture flasks at the desired cell densities. The culture medium was decanted and the cell sheets were washed twice with phosphate buffered saline (PBS). The cells were trypsinized and triturated prior to seeding the flasks. Unless otherwise indicated the cultures were incubated at 37±1° C. in a humidified atmosphere of 5±1% carbon dioxide in air. The cultures were incubated until they were 50-80% confluent.
(§6) The cells were subcultured when the flasks were subconfluent. The medium was aspirated from the flasks and the cell sheets rinsed twice with PBS. Next, the Trypsin Solution was added to each flask to cover the cell sheet. The Trypsin Solution was removed after 30-60 seconds and the flasks were incubated at room temperature for two to six minutes. When 90% of the cells became dislodged, growth medium was added. The cells were removed by trituration and transferred to a sterile centrifuge tube. The concentration of cells in the suspension was determined, and an appropriate dilution was made to obtain a density of 5000 cells/ml. The cells were subcultured into the designated wells of the 96-well bioassay plates (200 microliter cell suspension per well). PBS was added to all the remaining wells to maintain humidity. The plates were then incubated overnight before test article treatment.
(§7) Each dose of test article was tested by treating quadruplicate wells of cultures with 100 microliter of each dilution. Those wells designated as solvent controls received an additional 100 microliter of methanol control; negative controls wells received an additional 100 microliters of treatment medium. PBS was added to the remaining wells not treated with test article or medium. The plates were then incubated for approximately 5 days.
(§8) At the end of the 5 day incubation, each dose group was examined microscopically to assess toxicity. A 0.5 mg/ml dilution of MTT was made in treatment medium, and the dilution was filtered through a 0.45 micrometer filter to remove undissolved crystals. The medium was decanted from the wells of the bioassy plates. Immediately thereafter, […] of the filtered MTT solution was added to all test wells except for the two untreated blank test wells. The two blank wells received 200 microliters of treatment medium. The plates were returned to the incubator for about 3 hours. After incubation, the MTT containing medium was decanted. […] was added to each well and the plates were shaken at room temperature for about 2 hours.
(§9) The absorbance at 550 mn (OD550) of each well was measured with a Molecular Devices (Menlo Park, Calif.) VMax plate reader.
(§10) The mean OD550 of the solvent control wells and that of each test article dilution, and that of each of the blank wells and the positive control were calculated. The mean OD550 of the blank wells was subtracted from the mean of the solvent control wells, and test article wells, respectively to give the corresponding mean OD550. [formula]
(§11) Dose response curves were prepared as semi-log plots with % of control on the ordinate (linear) and the test article concentration on the abscissa (logarithmic). The EC50 was interpolated from the plots for each test article.
(§12) For the test articles administered in methanol, separate responses were prepared to correct for the methanol data. […]

[8] = Toxicity to normal healthy cells (Table 2); format: cell-based; conditions: read-out: EC-50 (the source's name)
Excerpt: The EC50 is the concentration at which one half of the cells are killed.
(§13) In normal healthy cells, the following results were obtained.

[9] = tested on: MX1 breast tumor cells; experiment: MTT cell viability, breast tumor cells (Table 1); format: cell-based; conditions: Homo sapiens, 120 h, approx. 5 days, read-out: EC-50 Result
Protocol: as §3, §4, §5, §6, §7, §8, §9, §10, §11, §12

[10] = tested on: normal healthy cells; experiment: Toxicity to normal healthy cells, overall comparison; format: cell-based; conditions: versus adriamycin
Excerpt: as §13

[11] = tested on: HT29 colon tumor cells; experiment: MTT cell viability, colon tumor cells (Table 1); format: cell-based; conditions: Homo sapiens, HT-29, 120 h, approx. 5 days, read-out: EC-50 Result
Protocol: as §3, §4, §5, §6, §7, §8, §9, §10, §11, §12

[12] = tested on: HT29 tumors; experiment: Mouse model for colon cancer, subcutaneous tumor growth; format: in vivo; conditions: 2500 mg/kg; HT29 implanted subcutaneously; screening test
Protocol: (§14) In a mouse model for breast, lung and colon cancer Carbendazim slowed tumor growth. MX1 breast cancer tumors implanted subcutaneously under the mice skin were treated with 500 mg/kg of Carbendazim. Tumor growth was slowed by 42%. Carbendazim slowed tumor growth in lung A549 tumors implanted subcutaneously under the mice skin by 57% at the same dose. In a screening test of HT29 tumors implanted subcutaneously under the mice skin, tumor growth was slowed 54% at 2500 mg/kg dose of Carbendazim.

[13] = tested on: MX1 breast cancer tumors; experiment: Mouse model for breast cancer, subcutaneous tumor growth; format: in vivo; conditions: 500 mg/kg; MX1 implanted subcutaneously
Protocol: as §14

[14] = tested on: melanoma, B 16; experiment: In vivo mouse model for melanoma, life span
[15] = tested on: leukemia, P388; experiment: In vivo mouse model for leukemia, life span
[16] = tested on: lung A549 tumors; experiment: Mouse model for lung cancer, subcutaneous tumor growth; format: in vivo; conditions: same dose (500 mg/kg); A549 implanted subcutaneously
Protocol: as §14

[17] = bronchial cells, Broncheal Cells, first value
[18] = bronchial cells, Broncheal Cells, second value
[19] = kerotinoyle cells, second value

Structure (SMILES): c1ccc2[nH]c(-c3cscn3)nc2c1 [Thiabendazole, 2-(4-thiazolyl)-1 H-benzimidazole]
- inhibition at 60 µg/mL [1]: 74%
- activation at 60 µg/mL [2]: 26%
- killing of tumor cells [3]: effectively killed these cells
- Optical Density ([3]; 0.87 ppm): 1.32
- Optical Density ([3]; 3.46 ppm): 1.12
- Optical Density ([3]; 17.3 ppm): 0.851
- Optical Density ([3]; 35 ppm): 0.411
- Optical Density ([3]; 173 ppm): 0.007
- killing of tumor cells [4]: effectively killed these cells
- Optical Density ([4]; 0.87 ppm): 0.507
- Optical Density ([4]; 3.46 ppm): 0.466
- Optical Density ([4]; 17.3 ppm): 0.258
- Optical Density ([4]; 35 ppm): 0.025
- Optical Density ([4]; 173 ppm): 0.007
- killing of tumor cells [5]: effectively killed these cells
- Optical Density ([5]; 0.87 ppm): 0.852
- Optical Density ([5]; 3.46 ppm): 0.713
- Optical Density ([5]; 17.3 ppm): 0.204
- Optical Density ([5]; 35 ppm): 0.011
- Optical Density ([5]; 173 ppm): 0.005
- inhibition at 60 µg/mL ([6]; Human immunodeficiency virus 1, 60 μg/ml): 98%

Structure (SMILES): CCCCNC(=O)n1c(NC(=O)OC)nc2ccccc21 [benomyl, methyl 1-(butylcarbamoyl)2-benzimidazolecarbamate]
- IC50 ([7]; A549, first column): 0.98 µg/mL (≈ 3.38 µM)
- IC50 ([7]; A549, second column): 1.02 µg/mL (≈ 3.51 µM)
- CC50 [8, 17]: 0.728 µg/mL (≈ 2.51 µM)
- CC50 [8, 18]: 0.682 µg/mL (≈ 2.35 µM)
- CC50 ([8]; fibroblasts, first value): 3.24 µg/mL (≈ 11.2 µM)
- CC50 ([8]; fibroblasts, second value): 2.81 µg/mL (≈ 9.68 µM)
- CC50 ([8]; kerotinoyle cells, first value): 3.26 µg/mL (≈ 11.2 µM)
- CC50 [8, 19]: 2.4 µg/mL (≈ 8.27 µM)
- IC50 ([9]; MX1, first column): 1.42 µg/mL (≈ 4.89 µM)
- IC50 ([9]; MX1, second column): 2.42 µg/mL (≈ 8.34 µM)
- toxicity to normal healthy cells relative to adriamycin [10]: much less toxic to normal healthy cells than adriamycin
- IC50 ([11]; HT29, first column): 0.742 µg/mL (≈ 2.56 µM)
- IC50 ([11]; HT29, second column): 0.747 µg/mL (≈ 2.57 µM)

Structure (SMILES): COC(=O)Nc1nc2ccccc2[nH]1 [carbendazim, methyl 2-benzimidazole carbamate]
- tumor growth was slowed [12]: 54%
- Tumor growth was slowed by [13]: 42%
- IC50 ([7]; A549, first column): 0.856 µg/mL (≈ 4.48 µM)
- IC50 ([7]; A549, second column): 0.836 µg/mL (≈ 4.37 µM)
- CC50 [8, 17]: 0.32 µg/mL (≈ 1.67 µM)
- CC50 [8, 18]: 0.506 µg/mL (≈ 2.65 µM)
- CC50 ([8]; fibroblasts, first value): 1.52 µg/mL (≈ 7.95 µM)
- CC50 ([8]; fibroblasts, second value): 1.42 µg/mL (≈ 7.43 µM)
- CC50 ([8]; kerotinoyle cells, first value): 0.752 µg/mL (≈ 3.93 µM)
- CC50 [8, 19]: 0.822 µg/mL (≈ 4.3 µM)
- increased the life span versus control ([14]; 1000 mg/kg): 131%
- increased the life span versus control ([14]; 2000 mg/kg): 163%
- increased the life span versus control ([14]; 4000 mg/kg): 187%
- increased the life span of the mice versus control ([15]; 1000 mg/kg): 129%
- increased the life span of the mice versus control ([15]; 2000 mg/kg): 148%
- increased the life span of the mice versus control ([15]; 4000 mg/kg): 189%
- IC50 ([9]; MX1, first column): 0.829 µg/mL (≈ 4.34 µM)
- IC50 ([9]; MX1, second column): 0.856 µg/mL (≈ 4.48 µM)
- toxicity to normal healthy cells relative to adriamycin [10]: much less toxic to normal healthy cells than adriamycin
- slowed tumor growth by [16]: 57%
- IC50 ([11]; HT29, first column): 0.621 µg/mL (≈ 3.25 µM)
- IC50 ([11]; HT29, second column): 0.662 µg/mL (≈ 3.46 µM)
- inhibition at 4 µg/mL ([6]; Human immunodeficiency virus 1, 4 μg/ml): 100%

Reference: patent publication US5929099A, “Pharmaceutical composition for inhibiting the growth of cancers” (Procter & Gamble Co., priority 1996, dated 1999)
